For eleven compounds, TGI results are on record in PubChem BioAssay (NCI).

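96-well plates; 48 h exposure; 5 concentrations. Endpoints by linear interpolation between flanking doses. Not reached: highest tested concentration assigned. The concentration for full growth arrest is given as TGI.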 Where a SMILES comes first, the peptide text is derived from it. The star is where a group is joined. Cbz = O=C(OCc1ccccc1)*; OBn = c1ccc(CO*)cc1

The first assay deals with OVCAR-3 ovarian. The assay can be described thus: inhibition of tumour cell growth, NCI panel, 48 h.
For the compound `COC(=O)CNC(=O)C(C)NC(=O)C(CC(=O)OCc1ccccc1)NC(=O)OCc1ccccc1` (stereo not drawn) (Cbz-Asp(OBn)-Ala-Gly-OMe; configuration not given here), the TGI is greater than 100 µM.

On to `CC(C)=CCOc1cc(NC(=S)c2ccoc2C)ccc1Cl`, for which the TGI is greater than 100 µM.

Compound `O=C1c2cc3c(cc2CC12Cc1cc4c(cc1C2=O)CCCC4)CCCC3` displayed a TGI of 93.7 µM.

With `CC1(C)C(=O)N(O)C(C)(C)N1O`, the TGI is greater than 10 µM.

As to `CCOC(=O)/C(O)=C(/C=N\C(=S)Nc1ccccc1Cl)C(=O)OCC`, the TGI is greater than 100 µM.

As for `O=C(NC(C(F)(F)F)(C(F)(F)F)P(=O)(c1ccccc1)c1ccccc1)C(C(F)(F)F)C(F)(F)F`, the TGI came out at 69.7 µM.

`O=C1CC(=O)NC(=NN2C(=O)CSC2c2ccc(Cl)c(Cl)c2)N1` (configuration not stated): the TGI is greater than 100 µM.

In the case of `O=C1NC(N2CCOCC2)=N/C1=C\c1cccs1`, the TGI was greater than 100 µM.

Take `CSc1nc2ccccc2c(=O)n1/N=C1\C(=O)N(CN2CCCCC2)c2ccc(Cl)cc21`: the TGI is greater than 100 µM.

The test system of a further assay is MCF7 breast. The assay can be described thus: inhibition of tumour cell growth, NCI panel, 48 h.
The compound `COC(=O)CNC(=O)C(C)NC(=O)C(CC(=O)OCc1ccccc1)NC(=O)OCc1ccccc1` (stereo not drawn) (Cbz-Asp(OBn)-Ala-Gly-OMe; configuration not given here) registered a TGI greater than 100 µM.

`CC(C)=CCOc1cc(NC(=S)c2ccoc2C)ccc1Cl` showed a TGI greater than 100 µM.

As to `C[C@H]1[C@H](C)N(Cc2ccccc2)P(=O)(C(O)/C=C/c2ccccc2)N1Cc1ccccc1` (some centres not stated), the TGI was greater than 25 µM.

`O=C1c2cc3c(cc2CC12Cc1cc4c(cc1C2=O)CCCC4)CCCC3`: the TGI was greater than 100 µM.

In turn, `O=C1CSC2(CC(/C=C/c3ccccc3O)=NN2c2cccc(S(=O)(=O)O)c2)N1c1nc2ccccc2s1` (configuration not stated) showed a TGI greater than 100 µM.

`CC1(C)C(=O)N(O)C(C)(C)N1O` had a TGI greater than 10 µM.

`CCOC(=O)/C(O)=C(/C=N\C(=S)Nc1ccccc1Cl)C(=O)OCC` yielded a TGI greater than 100 µM.

As for `O=C(NC(C(F)(F)F)(C(F)(F)F)P(=O)(c1ccccc1)c1ccccc1)C(C(F)(F)F)C(F)(F)F`, the TGI came to 62.1 µM.

`O=C1CC(=O)NC(=NN2C(=O)CSC2c2ccc(Cl)c(Cl)c2)N1` (configuration not stated) displayed a TGI greater than 100 µM.

Compound `O=C1NC(N2CCOCC2)=N/C1=C\c1cccs1` gave a TGI greater than 100 µM.

`CSc1nc2ccccc2c(=O)n1/N=C1\C(=O)N(CN2CCCCC2)c2ccc(Cl)cc21` registered a TGI greater than 100 µM.

The test system of the next assay is MDA-MB-231 breast. The assay can be described thus: inhibition of tumour cell growth, NCI panel, 48 h.
`COC(=O)CNC(=O)C(C)NC(=O)C(CC(=O)OCc1ccccc1)NC(=O)OCc1ccccc1` (stereo not drawn) (Cbz-Asp(OBn)-Ala-Gly-OMe; configuration not given here) returned a TGI of 46.9 µM.

As to `CC(C)=CCOc1cc(NC(=S)c2ccoc2C)ccc1Cl`, the TGI is greater than 100 µM.

As to `C[C@H]1[C@H](C)N(Cc2ccccc2)P(=O)(C(O)/C=C/c2ccccc2)N1Cc1ccccc1` (some centres not stated), the TGI was 15.1 µM.

`O=C1c2cc3c(cc2CC12Cc1cc4c(cc1C2=O)CCCC4)CCCC3` returned a TGI of 77.1 µM.

For `O=C1CSC2(CC(/C=C/c3ccccc3O)=NN2c2cccc(S(=O)(=O)O)c2)N1c1nc2ccccc2s1` (configuration not stated), the TGI was greater than 100 µM.

`CC1(C)C(=O)N(O)C(C)(C)N1O` registered a TGI greater than 10 µM.

`CCOC(=O)/C(O)=C(/C=N\C(=S)Nc1ccccc1Cl)C(=O)OCC` had a TGI greater than 100 µM.

With `O=C(NC(C(F)(F)F)(C(F)(F)F)P(=O)(c1ccccc1)c1ccccc1)C(C(F)(F)F)C(F)(F)F`, the TGI turned out to be 59.2 µM.

Compound `O=C1CC(=O)NC(=NN2C(=O)CSC2c2ccc(Cl)c(Cl)c2)N1` (configuration not stated) returned a TGI greater than 100 µM.

For `O=C1NC(N2CCOCC2)=N/C1=C\c1cccs1`, the TGI was greater than 100 µM.

Compound `CSc1nc2ccccc2c(=O)n1/N=C1\C(=O)N(CN2CCCCC2)c2ccc(Cl)cc21` had a TGI greater than 100 µM.

Another assay relates to RPMI-8226 leukemia. The assay can be described thus: inhibition of tumour cell growth, NCI panel, 48 h.
Turning to `COC(=O)CNC(=O)C(C)NC(=O)C(CC(=O)OCc1ccccc1)NC(=O)OCc1ccccc1` (stereo not drawn) (Cbz-Asp(OBn)-Ala-Gly-OMe; configuration not given here), the TGI was greater than 100 µM.

Compound `CC(C)=CCOc1cc(NC(=S)c2ccoc2C)ccc1Cl` gave a TGI greater than 100 µM.

With `C[C@H]1[C@H](C)N(Cc2ccccc2)P(=O)(C(O)/C=C/c2ccccc2)N1Cc1ccccc1` (some centres not stated), the TGI came to 15.6 µM.

Compound `O=C1c2cc3c(cc2CC12Cc1cc4c(cc1C2=O)CCCC4)CCCC3` came in with a TGI greater than 100 µM.

As for `O=C1CSC2(CC(/C=C/c3ccccc3O)=NN2c2cccc(S(=O)(=O)O)c2)N1c1nc2ccccc2s1` (configuration not stated), the TGI amounted to 42.1 µM.

In turn, `CC1(C)C(=O)N(O)C(C)(C)N1O` came in with a TGI greater than 10 µM.

In the case of `CCOC(=O)/C(O)=C(/C=N\C(=S)Nc1ccccc1Cl)C(=O)OCC`, the TGI was greater than 100 µM.

Take `O=C(NC(C(F)(F)F)(C(F)(F)F)P(=O)(c1ccccc1)c1ccccc1)C(C(F)(F)F)C(F)(F)F`: the TGI turned out to be 91.8 µM.

Compound `O=C1CC(=O)NC(=NN2C(=O)CSC2c2ccc(Cl)c(Cl)c2)N1` (configuration not stated) came in with a TGI greater than 100 µM.

With `O=C1NC(N2CCOCC2)=N/C1=C\c1cccs1`, the TGI was greater than 100 µM.

The test system of the next assay is HS 578T breast. The assay can be described thus: inhibition of tumour cell growth, NCI panel, 48 h.
For the compound `COC(=O)CNC(=O)C(C)NC(=O)C(CC(=O)OCc1ccccc1)NC(=O)OCc1ccccc1` (stereo not drawn) (Cbz-Asp(OBn)-Ala-Gly-OMe; configuration not given here), the TGI is greater than 100 µM.

With `CC(C)=CCOc1cc(NC(=S)c2ccoc2C)ccc1Cl`, the TGI was greater than 100 µM.

Turning to `C[C@H]1[C@H](C)N(Cc2ccccc2)P(=O)(C(O)/C=C/c2ccccc2)N1Cc1ccccc1` (some centres not stated), the TGI came out at 12.3 µM.

Regarding `O=C1c2cc3c(cc2CC12Cc1cc4c(cc1C2=O)CCCC4)CCCC3`, the TGI amounted to 72.5 µM.

`O=C1CSC2(CC(/C=C/c3ccccc3O)=NN2c2cccc(S(=O)(=O)O)c2)N1c1nc2ccccc2s1` (configuration not stated): the TGI is greater than 100 µM.

The compound `CC1(C)C(=O)N(O)C(C)(C)N1O` gave a TGI greater than 10 µM.

In the case of `CCOC(=O)/C(O)=C(/C=N\C(=S)Nc1ccccc1Cl)C(=O)OCC`, the TGI is greater than 100 µM.

In the case of `O=C(NC(C(F)(F)F)(C(F)(F)F)P(=O)(c1ccccc1)c1ccccc1)C(C(F)(F)F)C(F)(F)F`, the TGI was greater than 100 µM.

`O=C1CC(=O)NC(=NN2C(=O)CSC2c2ccc(Cl)c(Cl)c2)N1` (configuration not stated): the TGI was greater than 100 µM.

In turn, `O=C1NC(N2CCOCC2)=N/C1=C\c1cccs1` came in with a TGI greater than 100 µM.

`CSc1nc2ccccc2c(=O)n1/N=C1\C(=O)N(CN2CCCCC2)c2ccc(Cl)cc21` gave a TGI greater than 100 µM.
